pEC50, pKi: −log10 of the molar value.
Legend:
[1] = molecular target: T1, Gag-Pol polyprotein [489-892,N526H,R530K,V566I,I582L,V648I,Q690K,I723V,C750S,T788A,Q795E,T874A,V881I,P882Q] (Human immunodeficiency virus, UniProt P12497, C750S/I582L/I723V/N526H/P882Q/Q690K/Q795E/R530K/T788A/T874A/V566I/V648I/V881I); assay: Drug Susceptibility Assay
T1 construct: 489-892
Protocol: (§1) Drug susceptibility assays were carried out by Monogram Bioscience against wild-type HIV-1 control and patient-derived strains of wild-type HIV-1 from clades A, B, and C, and two multi-drug-resistant HIV-1 variants.

MDRC4 = MDRC4 (Human immunodeficiency virus, UniProt P12497); assay: Drug Susceptibility Assay
Protocol: as §1

[2] = molecular target: T2, Gag-Pol polyprotein [489-892] (Human immunodeficiency virus, UniProt P12497); assay: Drug Susceptibility Assay
T2 construct: 489-892
Protocol: as §1

[3] = molecular target: HIV WT-A pol protein (wild-type clade A) (Human immunodeficiency virus 1, UniProt P12497); assay: Drug Susceptibility Assay
Protocol: as §1

MDR1 = MDR1 (Human immunodeficiency virus, UniProt P12497); assay: Drug Susceptibility Assay
Protocol: as §1

[4] = molecular target: HIV WT-C pol protein (wild-type clade C) (Human immunodeficiency virus, UniProt P12497); assay: Drug Susceptibility Assay
Protocol: as §1

[5] = molecular target: T3, Gag-Pol polyprotein [484-582,I497V,V499I,E519D,G532V,I538V,R541K,D544E,Q553K,V566A,L573M] (Human immunodeficiency virus, UniProt Q9QBY3, D544E/E519D/G532V/I497V/I538V/L573M/Q553K/R541K/V499I/V566A); assay: Inhibition Assay
T3 construct: 484-582
Protocol: (§2) HIV protease inhibitor activities were determined by fluorescence resonance energy transfer (FRET) method. Protease substrate, Arg-Glu-(EDANS)-Ser-Gln-Asn-Tyr-Pro-Ile-Val-Gln-Lys(DABCYL)-Arg, was labeled with the energy transfer donor (EDANS) and acceptor (DABCYL) dyes at its two ends to perform FRET. Fluorescence measurements were carried out on an EnVision plate reader (PerkinElmer).

[6] = molecular target: T4, Gag-Pol polyprotein [484-582,I494L,I497V,V499I,E519D,I534V,R541K,D544E,Q553K,A555V,L573M] (Human immunodeficiency virus, UniProt Q9QBY3, A555V/D544E/E519D/I494L/I497V/I534V/L573M/Q553K/R541K/V499I); assay: Inhibition Assay
T4 construct: 484-582
Protocol: as §2

[7] = molecular target: T5, Gag-Pol polyprotein [484-582,I494L,I497V,V499I,D514N,E519D,R541K,D544E,Q553K,N572D,L573M] (Human immunodeficiency virus, UniProt Q9QBY3, D514N/D544E/E519D/I494L/I497V/L573M/N572D/Q553K/R541K/V499I); assay: Inhibition Assay
T5 construct: 484-582
Protocol: as §2

HIV-1 protease = HIV-1 protease (Human immunodeficiency virus, UniProt O90785); assay: Inhibition Assay
Protocol: as §2

[8] = molecular target: T6, Gag-Pol polyprotein [484-582,I497V,V499I,E519D,R541K,D544E,Q553K,A555V,G557S,I568V,L574M,L573M] (Human immunodeficiency virus, UniProt Q9QBY3, A555V/D544E/E519D/G557S/I497V/I568V/L573M/L574M/Q553K/R541K/V499I); assay: Inhibition Assay
T6 construct: 484-582
Protocol: as §2

| Compound | pEC50 [1] | pEC50 (MDRC4) | pEC50 [2] | pEC50 [3] | pEC50 (MDR1) | pEC50 [4] | pKi [5] | pKi [6] | pKi [7] | pKi (HIV-1 protease) | pKi [8] |
| --- | --- | --- | --- | --- | --- | --- | --- | --- | --- | --- | --- |
| O=C(N[C@@H](Cc1ccccc1)[C@H](O)CN(CC1CCCCC1)S(=O)(=O)c1ccc2ncsc2c1)c1cccc(O)c1 [N-[(1S,2R)-3-[(6-Benzothiazolylsulfonyl)(cyclohexylmethyl)amino]-2-hydroxy-1-(phenylmethyl)propyl]-3-hydroxy-benzamide (AF-72)] | 7.42 | 6.78 | 7.20 | 7.31 | 7.00 | 7.02 | 8.88 | 8.32 | 9.42 | 9.89 | 8.56 |
| CC[C@H](C)[C@H](NC(C)=O)C(=O)N[C@@H](Cc1ccccc1)[C@H](O)CN(CC(C)C)S(=O)(=O)c1ccc(OC)cc1 [(2S,3S)-2-(Acetylamino)-N-[(1S,2R)-2-hydroxy-3-[[(4-methoxyphenyl)sulfonyl](2-methylpropyl)amino]-1-(phenylmethyl)propyl]-3-methyl-pentanamide (AF-68)] | 8.80 | 7.81 | 8.46 | 8.62 | 7.82 | 8.52 | 9.09 | 9.84 | 10.31 | 9.84 | 8.99 |
| O=C(N[C@@H](Cc1ccccc1)[C@H](O)CN(CCCc1ccccc1)S(=O)(=O)c1ccc2ncsc2c1)c1cccc(O)c1 [N-[(1S,2R)-3-[(6-Benzothiazolylsulfonyl)(3-phenylpropyl)amino]-2-hydroxy-1-(phenylmethyl)propyl]-3-hydroxy-benzamide (AF-69)] |  |  |  |  |  |  | 7.72 | 8.64 | 8.70 | 10.15 | 8.00 |
| CC[C@H](C)CN(C[C@@H](O)[C@H](Cc1ccccc1)NC(=O)C(NC(C)=O)[C@@H](C)CC)S(=O)(=O)c1ccc2ncsc2c1 (stereo partly drawn) [(2S,3S)-2-(Acetylamino)-N-[(1S,2R)-3-[(6-benzothiazolylsulfonyl)[(2S)-2-methylbutyl]amino]-2-hydroxy-1-(phenylmethyl)propyl]-3-methyl-pentanamide (AG-23)] | 8.72 | 8.06 | 8.57 | 8.64 | 8.14 | 8.46 | 9.42 | 10.04 | 10.55 | 10.68 | 10.32 |
| COc1ccc(S(=O)(=O)N(CCCc2ccccc2)C[C@@H](O)[C@H](Cc2ccccc2)NC(=O)c2cccc(O)c2)cc1 [3-Hydroxy-N-[(1S,2R)-2-hydroxy-3-[[(4-methoxyphenyl)sulfonyl](3-phenylpropyl)amino]-1-(phenylmethyl)propyl]-benzamide (AF-78)] |  |  |  |  |  |  | 7.37 | 8.23 | 8.59 | 9.36 | 7.62 |
| CC(C)CN(C[C@@H](O)[C@H](Cc1ccccc1)NC(=O)O[C@H]1CCOC1)S(=O)(=O)c1ccc(N)cc1 [VX-478] | 8.74 | 7.76 | 8.52 | 8.59 | 7.81 | 8.43 |  |  |  |  |  |
| COc1ccc(S(=O)(=O)N(CC2CCCCC2)C[C@@H](O)[C@H](Cc2ccccc2)NC(=O)c2cccc(O)c2)cc1 [N-[(1S,2R)-3-[(Cyclohexylmethyl)[(4-methoxyphenyl)sulfonyl]amino]-2-hydroxy-1-(phenylmethyl)propyl]-3-hydroxy-benzamide (AF-77)] | 7.65 | 6.98 | 7.33 | 7.42 | 7.06 | 7.18 | 8.69 | 8.47 | 9.31 | 9.26 | 8.61 |
| CC[C@H](C)CN(C[C@@H](O)[C@H](Cc1ccccc1)NC(=O)c1cccc(O)c1)S(=O)(=O)c1ccc(-c2ccno2)s1 [3-Hydroxy-N-[(1S,2R)-2-hydroxy-3-[[[5-(5-isoxazolyl)-2-thienyl]sulfonyl][(2S)-2-methylbutyl]amino]-1-(phenylmethyl)propyl]-benzamide (AF-71)] |  |  |  |  |  |  | 7.74 | 7.52 | 8.53 | 8.48 | 7.35 |

Reference: BindingDB's records for doi:10.1021/cb400468c (Massachusetts Institute of Technology, 2013)
